From patent US20110160308A1, “Use of Monoamine Oxidase Inhibitors to Treat Outer Retina Disorders” (ALCON RESEARCH, LTD., priority 2006, published 2011)
“Also recorded” adds a separate entry of the source.

Tests used:
MAO-B = biological target: T1, MAO-B (Rattus norvegicus, UniProt P19643); assay: In vitro MAO-B enzyme activity assay (radioenzymatic, 14C-phenylethylamine) in rat brain mitochondria; format: biochemical
T1 construct: of the invention in rat brain mitochondria; from tissue; host or cells: rat brain, crude mitochondrial fraction (male Wistar rats)
T1 sequence (P19643 1-520): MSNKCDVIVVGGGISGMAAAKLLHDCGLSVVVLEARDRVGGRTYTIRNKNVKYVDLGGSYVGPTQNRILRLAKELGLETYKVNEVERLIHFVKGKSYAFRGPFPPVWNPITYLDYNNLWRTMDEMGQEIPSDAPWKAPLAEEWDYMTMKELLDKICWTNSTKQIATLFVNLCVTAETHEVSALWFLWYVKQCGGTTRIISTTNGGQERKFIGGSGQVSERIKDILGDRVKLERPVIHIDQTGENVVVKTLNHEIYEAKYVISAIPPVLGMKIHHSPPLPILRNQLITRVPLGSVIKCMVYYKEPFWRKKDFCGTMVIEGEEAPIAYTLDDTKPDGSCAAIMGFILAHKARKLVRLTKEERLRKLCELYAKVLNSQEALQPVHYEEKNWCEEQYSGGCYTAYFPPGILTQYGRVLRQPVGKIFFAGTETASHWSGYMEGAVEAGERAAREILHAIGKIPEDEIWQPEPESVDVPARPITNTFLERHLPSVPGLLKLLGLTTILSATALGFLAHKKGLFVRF
Experimental: (§1) In Vitro MAO-A and MAO-B Enzyme Activities Assay
(§2) —Membrane Preparations (Crude Mitochondrial Fraction)
(§3) The crude homogenate was centrifuged at 2220 rpm for 10 minutes at +4° C. and the supernatant recovered. The pellet was homogenized and centrifuged again. The two supernatants were pooled and centrifuged at 9250 rpm for 10 minutes. The pellet was resuspended in fresh buffer and centrifuged at 11250 rpm for 10 minutes at +4° C. The resulting pellet was stored at −80° C.
(§4) —In Vitro Enzyme Activities Assay
(§5) The enzyme activities were assessed with a radioenzymatic assay using the substrates ^14C-serotonin (5-HT) and ^14C-phenylethylamine (PEA) for MAO-A and MAO-B, respectively.
(§6) The mitochondrial pellet (500 μg protein) was resuspended in 0.1 M phosphate buffer (pH 7.4). 500 μl of the suspension were added to a 50 μl solution of the test compound or buffer, and incubated for 30 min at 37° C. (preincubation) then the substrate (50 μl) was added. The incubation was carried out for 30 minutes at 37° C. (^14C-5-HT, 5 μM) or for 10 minutes at 37° C. (^14C-PEA, 0.5 μM).
(§7) After centrifugation, the deaminated metabolites were extracted with 3 ml of diethyl ether (5-HT) or toluene (PEA) and the radioactive organic phase was measured by liquid scintillation spectrometry at 90% efficiency. The amount of neutral and/or acidic metabolites formed as a result of MAO activity was obtained by measuring the radioactivity of the eluate.
(§8) The activity of MAO in the sample, corresponding to a percentage of radioactivity compared with the control activity in the absence of the inhibitor, was expressed as nmoles of substrate transformed/mg protein/min.
(§9) The drug inhibition curves were obtained from at least eight different concentration points, each in duplicate (10^−10 to 10^−5 M).

MAO-A = biological target: T2, MAO-A (Rattus norvegicus, UniProt P21396); assay: In vitro MAO-A enzyme activity assay (radioenzymatic, 14C-serotonin) in rat brain mitochondria; format: biochemical
T2 construct: of the invention in rat brain mitochondria; from tissue; host or cells: rat brain, crude mitochondrial fraction (male Wistar rats)
T2 sequence (P21396 1-526): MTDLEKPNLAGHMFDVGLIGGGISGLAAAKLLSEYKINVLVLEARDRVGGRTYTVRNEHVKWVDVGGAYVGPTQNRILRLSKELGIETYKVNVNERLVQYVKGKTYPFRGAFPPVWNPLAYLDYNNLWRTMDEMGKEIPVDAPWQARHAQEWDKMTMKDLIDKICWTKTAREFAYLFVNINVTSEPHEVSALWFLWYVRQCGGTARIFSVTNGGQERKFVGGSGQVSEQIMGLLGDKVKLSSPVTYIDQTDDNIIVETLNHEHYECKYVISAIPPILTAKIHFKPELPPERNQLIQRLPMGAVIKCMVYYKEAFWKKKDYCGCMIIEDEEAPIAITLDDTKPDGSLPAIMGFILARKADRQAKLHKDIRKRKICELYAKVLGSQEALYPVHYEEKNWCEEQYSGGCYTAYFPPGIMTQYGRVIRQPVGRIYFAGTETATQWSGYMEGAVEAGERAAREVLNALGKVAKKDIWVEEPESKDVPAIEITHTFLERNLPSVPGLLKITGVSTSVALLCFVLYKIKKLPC
Experimental: as §1, §2, §3, §4, §5, §6, §7, §8, §9

[1] = tested on: mouse closed head injury model; conditions: 1 mg/kg; cited from earlier work
[2] = tested on: light-induced functional or morphological changes; assay: Light damage paradigms used by the present inventors; format: in vivo
[3] = tested on: rat photo-oxidative induced retinopathy model; assay: Rat photo-oxidative induced retinopathy model (blue-light exposure; ERG and retinal morphology); format: in vivo; conditions: for Maximum ERG a-wave responses, % of normal: 5 days after 6-hour blue-light exposure
Experimental: Neuroprotective Activity of MAO Inhibitors in the Rat Photo-Oxidative Induced Retinopathy Model
Prevention of Photo-oxidative injury with Safinamide: The efficacy of Safinamide, a short acting MAO-B inhibitor, to protect retinal cells against the induction of photochemical lesions by blue-light exposure was assessed by measuring light-induced changes in retinal functioning (electroretinogram (ERG)) and evaluating retinal morphology changes.
Subjects. Male Sprague Dawley rats were randomly assigned to drug or vehicle experimental groups. Rats receiving vehicle (N=15) or drug treatment (Safinamide: 5 mg/kg, N=10; 15 mg/kg, N=10; 30 mg/kg, N=10; and 60 mg/kg, N=9) were pre-dosed (IP) at 48, 24 and 0 hours prior to a 6-hour light exposure (spectrally filtered blue light (˜220 fc)) and 24 and 48 hours after light exposure. Control rats were housed in their home cage under normal cyclic light exposure. Control rats were not dosed with either vehicle or drug.
Retinal Function Assessment. The ERG is a non-invasive clinical measurement of the electrical response of the eye to a flash of light. The a-wave and b-wave are two components of the ERG that are diagnostic of retinal function. The a-wave reflects outer retina function and is generated by interactions between photoreceptor and RPE while the b-wave reflects inner retina function, particularly on-bipolar cells. […] Changes in the a-wave amplitude or latency are diagnostic of outer retina pathology. The ERG was recorded after a five day recovery period from dark-adapted anesthetized rats (ketamine-HCl, 75 mg/Kg; xylazine, 6 mg/Kg). The eye's electrical response to a flash of light was elicited by viewing a ganzfeld. ERGs to a series of light flashes increasing in intensity were digitized to analyze temporal characteristics of the waveform and response voltage-log intensity relationship.
Light Microscopic Assessment of Retinal Lesions. Ocular tissues were fixed in a mixture of paraformaldehyde and glutaraldehyde, dehydrated in an ascending ethanol series, embedded in JB-4 plastic resin, and 1 to 1.5-micron thick sections were analyzed using a quantitative computer image analysis system attached to the microscope. Retinal Pigment Epithelium (RPE), Outer Nuclear Layer (ONL) and Inner to Nuclear Layer (INL) thickness as well as the length of inner segments (IS), where mitochondria are located, and outer segments (OS), which contain the light sensitive photopigment, were measured to assess outer retina protection.

[4] = tested on: rat photo-oxidative induced retinopathy model; assay: as above; format: in vivo; conditions: 15 to 60 mg/kg IP, 1-month recovery period
[5] = 15 and 60 mg/kg, light microscopy

Structure (SMILES) | IC50 (MAO-B) [nM] | IC50 (MAO-A) [nM] | further results
C#CCN[C@@H]1CCc2ccccc21 [Rasagiline] | – | – | cerebral edema reduction [1]: 40-50%
COCCOC(=O)C1=C(C)NC(C)=C(C(=O)OC(C)C)C1c1cccc([N+](=O)[O-])c1 (stereo not drawn) [nimodipine] | – | – | preventing light-induced functional or morphological changes [2]: no effect
C[C@H](NCc1ccc(OCc2cccc(F)c2)cc1)C(N)=O [Safinamide, (S)-2-[4-(3-Fluoro-benzyloxy)-benzylamino]-propionamide] | 90 | 584000 | Maximum ERG a-wave responses, % of normal ([3]; 5 mg/kg IP): 52 % of normal; Maximum ERG a-wave responses, % of normal ([3]; 15 mg/kg IP): greater than 70 % of normal; Maximum ERG a-wave responses, % of normal ([3]; 30 mg/kg IP): greater than 70 % of normal; Retinal responses (ERG) compared to control rats ([3]; 60 mg/kg IP, 5 days after blue-light exposure): not significantly diminished compared to control rats; photoreceptor segment length compared to vehicle-dosed rats ([3]; 60 mg/kg, light microscopy): significantly longer; retinal lesions ([3]; 60 mg/kg, light microscopy): devoid of any significant retinal lesions; retinal lesions ([3]; 60 mg/kg, light microscopy, listed as safinamide): devoid of significant retinal lesions; ERG (retinal function) protection compared to vehicle-dosed rats ([3]; 5-60 mg/kg IP, 5-day recovery period): Significant dose-dependent protection of retinal function; also recorded: significant ERG protection; ONL thickness compared to vehicle-dosed rats [3, 5]: significantly thicker; RPE thickness compared to vehicle-dosed rats [3, 5]: thicker RPE compared to vehicle-dosed rats; reduction in retinal lesions across doses ([3]; light microscopy, all doses): Dose-dependent reduction in retinal lesions; ERG a- and b-wave function after 1-month recovery [4]: not significantly different from normal; also recorded: normal ERG a- and b-wave function; ERG a- and b-wave function after 1-month recovery ([4]; listed as safinamide): significant and complete retinal function protection
Fc1ccc(C(c2ccc(F)cc2)N2CCN(C/C=C/c3ccccc3)CC2)cc1 [flunarizine] | – | – | preventing light-induced functional or morphological changes [2]: moderately effective
CN(CC(N)=O)Cc1ccc(OCc2cccc(Cl)c2)cc1 [2-{[4-(3-Chloro-benzyloxy)-benzyl]-methyl-amino}-acetamide] | 40 | 50000 | –
Cc1c(C)c2c(c(C)c1O)CC[C@@](C)(CCC[C@H](C)CCC[C@H](C)CCCC(C)C)O2 [α-tocopherol] | – | – | preventing light-induced functional or morphological changes [2]: ineffective

The next lines start with results.

IC50 (MAO-B) [nM] | IC50 (MAO-A) [nM] | Structure (SMILES) | further results
60 | 93000 | C[C@H](NCc1ccc(OCc2ccc(F)cc2)cc1)C(N)=O [(S)-2-[4-(4-Fluoro-benzyloxy)-benzylamino]-propionamide] | –
40 | 84000 | NC(=O)[C@H](CO)NCc1ccc(OCc2cccc(Cl)c2)cc1 [(S)-2-[4-(3-Chloro-benzyloxy)-benzylamino]-3-hydroxy-propionamide] | –
110 | > 100000 | NC(=O)[C@@H](CO)NCc1ccc(OCc2cccc(Cl)c2)cc1 [(R)-2-[4-(3-Chloro-benzyloxy)-benzylamino]-3-hydroxy-propionamide] | –
30 | 301000 | C[C@H](NCc1ccc(OCC2CCCCC2)cc1)C(N)=O [(S)-2-(4-Cyclohexylmethoxy-benzylamino)-propionamide] | –
60 | 82000 | C[C@@H](C(N)=O)N(C)Cc1ccc(OCc2cccc(Cl)c2)cc1 [(S)-2-{[4-(3-Chloro-benzyloxy)-benzyl]-methyl-amino}-propionamide] | –
180 | 228000 | C[C@H](NCc1ccc(OCc2ccccc2F)cc1)C(N)=O [(S)-2-[4-(2-Fluoro-benzyloxy)-benzylamino]-propionamide] | –
30 | 114000 | C[C@H](NCc1ccc(OCc2cccc(Cl)c2)cc1)C(N)=O [(S)-2-[4-(3-Chloro-benzyloxy)-benzylamino]-propionamide] | –
140 | – | NC(=O)[C@H](CO)NCc1ccc(OCc2cccc(F)c2)cc1 [(S)-2-[4-(3-Fluoro-benzyloxy)-benzylamino]-3-hydroxy-propionamide] | –
